PubChem BioAssay (NCI)
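Interpolation was linear, between the two tested concentrations surrounding the appropriate level; five concentrations were tested over 48 hours in 96-well plates. Definition used: TGI = concentration required for complete inhibition of growth.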

Assays:
Test in all cases: DTP human tumour cell line panel, 48 h
[1] = test system: SK-MEL-2 melanoma
[2] = test system: U251 CNS
[3] = test system: MALME-3M melanoma
[4] = test system: RXF 393 renal
[5] = test system: COLO 205 colon
[6] = test system: SN12C renal
[7] = test system: SK-MEL-28 melanoma
[8] = test system: A498 renal
[9] = test system: SW-620 colon
[10] = test system: MDA-N

| Compound | TGI [1] [µM] | TGI [2] [µM] | TGI [3] [µM] | TGI [4] [µM] | TGI [5] [µM] | TGI [6] [µM] | TGI [7] [µM] | TGI [8] [µM] | TGI [9] [µM] | TGI [10] [µM] |
| --- | --- | --- | --- | --- | --- | --- | --- | --- | --- | --- |
| N#CC1(C#N)C(C#N)(C#N)C1(C#N)C(N)=O | > 100 | > 100 | > 100 | > 100 | > 100 | > 100 | > 100 | > 100 | > 100 | > 100 |
| C=C(C(=O)O[C@H]1C/C(C)=C/CC/C(CO)=C/[C@H]2C(=O)OC(=C)[C@H]12)C(O)CO (stereo not given in full) | 29.6 | 27.1 | 10.7 | 25.9 | 13.4 | 30.6 | 30.8 | 32.7 | 14.4 | 25.3 |
| CCOC(=O)/C(C(N)=O)=C(\O)C(=O)/C(Br)=C(\O)c1ccccc1 | 37.4 | 35.3 | 29.2 | 29.6 | 33.4 | 34.2 | 34.9 | > 100 | 35.2 | 32.2 |
| COc1ccccc1-n1c(=O)n(C)c(=O)n1C(C)(C)C | > 100 | > 100 | > 100 | > 100 | > 100 | > 100 | > 100 | > 100 | > 100 | > 100 |
| CC(=O)n1cc(C2CC23N=C(c2ccccc2)OC3=O)c2ccccc21 (stereo not given) | 44.5 | 36.8 | 58.2 | 34.6 | 44.8 | 31.9 | 45.6 | 56.7 | 56.7 | 81.7 |
| CC(C)(C)OC(=O)[C@@H]1CCC(=O)N1C1(c2ccccc2)c2ccccc2-c2ccccc21 | > 100 | 73.8 | > 100 | 32.2 | 77.8 | > 100 | 71.3 | > 100 | 87.1 | 96.8 |
| CC1CC/C(=C\c2ccc(F)cc2)C2=C1C(c1ccc(F)cc1)N1C(=O)CSC1=N2 (stereo not given) | > 100 | > 100 | > 100 | > 100 | > 100 | > 100 | > 100 | > 100 | > 100 | > 100 |
| Cc1ccc(S(=O)(=O)N2C[C@@H]3CC[C@]4(CO[Si](C)(C)C(C)(C)C)N[C@@H](c5ccccc5)[C@H]2[C@H]34)cc1 | > 100 | > 100 | 46.3 | 53.1 | 58.8 | 76.2 | > 100 | > 100 | > 100 | > 100 |
| NNC(=O)Nc1nc2ccc(NN)cc2[nH]1 | > 100 | > 100 | > 100 | 97.2 | 37.3 | > 100 | 56.8 | 77.3 | 67.4 | > 100 |
| C#CC(O)(c1nc2ccccc2s1)c1nc2ccccc2s1 | 35.7 | 44 | > 100 | 89.7 | 40 | 42.6 | > 100 | 35.2 | > 100 | 57.4 |
| O=C(Nc1sccc1S(=O)(=O)c1ccc(Cl)cc1)c1ccc(F)cc1F | 39.5 | 45 | 96.4 | 46.2 | > 100 | > 100 | > 100 | 51.5 | > 100 | > 100 |
| O=C(COc1ccc(OCC(=O)N2C(=O)CC(=O)N(c3ccc(Cl)cc3)C2=S)cc1)N1C(=O)CC(=O)N(c2ccc(Cl)cc2)C1=S | > 100 | > 100 | 93.5 | 83.1 | 38.5 | > 100 | > 100 | > 100 | > 100 | 97.2 |
| O=c1[nH]nc(-c2ccccc2)n1/N=C/c1ccc([N+](=O)[O-])o1 | 11.6 | 18.3 | 9.38 | 2.63 | 8.47 | 13.5 | 10.3 | 23 | 15.2 | 12 |
| CSC(SC)=C(C#N)C(=O)Nc1cccc(Cl)c1 | > 100 | > 100 | > 100 | > 100 | > 100 | > 100 | > 100 | > 100 | > 100 | > 100 |
| CCOC(=O)C1CC(C(=O)c2ccccc2)N2c3ccccc3-c3ccccc3C12 (stereo not given) | > 100 | > 100 | > 100 | > 100 | > 100 | > 100 | > 100 | > 100 | > 100 | > 100 |
| O=C1c2cc(Cc3ccccc3)c(=O)c(Cc3ccccc3)cc2C(=O)c2cc(Cc3ccccc3)c(=O)c(Cc3ccccc3)cc21 | > 100 | > 100 | > 100 | > 100 | > 100 | > 100 | > 100 | > 100 | > 100 | > 100 |
| Cn1cccc1-c1ccc(-c2ccc(CO)[se]2)[se]1 | > 100 | > 100 | > 100 | 43.2 | > 86.4 | > 100 | > 100 | > 100 | > 100 | > 100 |
| Cc1cccc2c(N)c3cccc(C(=O)NCC[N+](C)(C)Cc4ccc([N+](=O)[O-])s4)c3nc12 | > 77.6 | > 100 | 25 | 25.9 | 21.4 | 49 | > 100 | 23.6 | > 66.3 | 49.9 |
| O=C(O)CSc1ccccc1C(=O)O | > 100 | > 100 | > 100 | > 100 | > 100 | > 100 | > 100 | > 100 | > 100 | > 100 |
| COC(=O)C1=C(OC(=O)/C(=C/c2ccccc2)c2ccc(OC)cc2)C(C(=O)OC)[C@@]2(O)[C@@H](C(=O)OC)[C@H](C)C[C@@H]1[C@@H]2C(=O)OC (stereo not given in full) | > 100 | > 100 | > 100 | 64.7 | > 100 | > 100 | > 100 | > 100 | > 100 | > 100 |
| C[C@]12CC[C@H]3[C@@H](CCC4=CC(=O)C=C[C@@]43OC(=O)C(F)(F)F)[C@@H]1CCC2=O | > 100 | > 100 | > 100 | > 100 | > 100 | > 100 | > 100 | > 100 | > 100 | > 100 |
